For 34 compounds, EC50 results are on record in BindingDB's records for doi:10.7270/Q2H130FK (Nmmlsc, 2007).

Where a name gives a salt, the structure may show the parent alone.

This assay concerns the target T1, Integrin alpha-4 (Homo sapiens, UniProt P05556+P13612).
T1 sequence (P13612 whole entry): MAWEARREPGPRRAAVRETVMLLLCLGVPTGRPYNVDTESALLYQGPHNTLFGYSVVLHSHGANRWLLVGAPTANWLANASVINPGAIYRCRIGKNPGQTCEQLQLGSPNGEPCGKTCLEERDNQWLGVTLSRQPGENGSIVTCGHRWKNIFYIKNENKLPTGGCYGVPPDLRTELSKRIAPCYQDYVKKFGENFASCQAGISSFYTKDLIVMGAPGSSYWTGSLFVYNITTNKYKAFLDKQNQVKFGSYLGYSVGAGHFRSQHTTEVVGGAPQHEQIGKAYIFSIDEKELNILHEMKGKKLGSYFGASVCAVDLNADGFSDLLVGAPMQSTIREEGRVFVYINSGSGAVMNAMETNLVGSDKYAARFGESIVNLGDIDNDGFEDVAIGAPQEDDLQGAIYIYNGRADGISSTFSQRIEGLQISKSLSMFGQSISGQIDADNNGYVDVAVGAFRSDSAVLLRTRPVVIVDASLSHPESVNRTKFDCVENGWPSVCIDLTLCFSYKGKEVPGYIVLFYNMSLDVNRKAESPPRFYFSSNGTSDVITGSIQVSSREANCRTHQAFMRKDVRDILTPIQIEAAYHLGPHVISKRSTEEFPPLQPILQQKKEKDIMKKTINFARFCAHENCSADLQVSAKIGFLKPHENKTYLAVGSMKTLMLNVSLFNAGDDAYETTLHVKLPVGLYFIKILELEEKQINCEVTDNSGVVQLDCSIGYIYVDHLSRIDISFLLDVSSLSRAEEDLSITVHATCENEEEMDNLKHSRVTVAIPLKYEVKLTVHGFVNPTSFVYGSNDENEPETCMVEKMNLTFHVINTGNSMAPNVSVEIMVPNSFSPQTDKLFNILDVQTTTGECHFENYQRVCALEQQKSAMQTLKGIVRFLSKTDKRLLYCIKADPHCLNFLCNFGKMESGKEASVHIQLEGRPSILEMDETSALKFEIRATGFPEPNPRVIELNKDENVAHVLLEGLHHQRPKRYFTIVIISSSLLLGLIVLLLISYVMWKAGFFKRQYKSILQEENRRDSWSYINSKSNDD
As to the kind of experiment: inhibition of LDV ligand binding to VLA-4 – cell-based, LDV-FITC binding, flow cytometry, dose response (AID 702).
With `CN1C(=S)SC(N(O)C(=O)Nc2ccccc2)C1(C)C` (centres undefined) [1-hydroxy-3-phenyl-1-(3,4,4-trimethyl-2-sulfanylidene-1,3-thiazolidin-5-yl)urea], the EC50 was 31.8 µM.

`O=S(=O)(Nc1cccc2ncccc12)c1cccs1` [MLS000057468] registered an EC50 of 11.4 µM.

In the case of `CCCCC1(C(=O)OCC)CC(CN2CCOCC2)OC1=O` (centres undefined) [3-butyl-2-keto-5-(morpholinomethyl)tetrahydrofuran-3-carboxylic acid ethyl ester], the EC50 stood at 6.5 µM.

The compound `CCOc1ccc2[nH]c(=O)c(CN(CC3COCCO3)C(=O)C3CC3)cc2c1` (centres undefined) [MLS000031787] gave an EC50 of 45.1 µM.

On to `C#CCN(C)C(C)Cc1ccccc1` (centres undefined) [Deprenyl], for which the EC50 is over 100 µM.

`O=c1c(CC[S+]([O-])c2ccccc2)c(O)n(-c2ccccc2)n1-c1ccccc1` (centres undefined) [1,2-Diphenyl-3,5-dioxo-4-(2-phenylsulfinylethyl)pyrazolidine] returned an EC50 of 17.3 µM.

`COc1ccc(-c2nnc(Nc3nc4c(OC)cccc4s3)o2)cc1` [MLS000045458]: the EC50 is 7.92 µM.

In the case of `COc1ccc(-c2coc3c(CN4CCCCC4)c(O)c(CN4CCCCC4)c(O)c3c2=O)cc1` [3-(4-methoxyphenyl)-5,7-bis(oxidanyl)-6,8-bis(piperidin-1-ylmethyl)chromen-4-one], a half-maximal effect (EC50) was put at 100 µM.

The compound `Cc1csc(NC(=O)CSc2nsc(SCC(=O)Nc3nc(C)cs3)c2C#N)n1` [2-[[4-cyano-3-[2-[(4-methyl-1,3-thiazol-2-yl)amino]-2-oxidanylidene-ethyl]sulfanyl-1,2-thiazol-5-yl]sulfanyl]-N-(4-methyl-1,3-thiazol-2-yl)ethanamide] had an EC50 of 20.2 µM.

Regarding `COCCNC(=O)C(c1ccncc1)N(C(=O)Cn1nnc2ccccc21)c1ccc(OC)cc1` (centres undefined) [2-(N-[2-(1-benzotriazolyl)-1-oxoethyl]-4-methoxyanilino)-N-(2-methoxyethyl)-2-pyridin-4-ylacetamide], the EC50 is over 100 µM.

Take `COc1cccc2sc(Nc3nnc(-c4cccs4)o3)nc12` [MolPort-003-038-736]: the EC50 was found to be 3.27 µM.

The compound `COc1ccc(-n2ncc3c(N4CCCc5ccccc54)ncnc32)cc1` [1-[1-(4-methoxyphenyl)-1H-pyrazolo[3,4-d]pyrimidin-4-yl]-1,2,3,4-tetrahydroquinoline] registered an EC50 of 52.6 µM.

In turn, `O=S1(=O)Nc2c(ccc3cccnc23)-c2ccccc21` [5H-quinolino[8,7-c][1,2]benzothiazine 6,6-dioxide] came in with an EC50 of 19.9 µM.

Compound `CC(N=O)C(=O)NCc1ccccn1` (centres undefined) [(2E)-2-(hydroxyimino)-N-(pyridin-2-ylmethyl)propanamide] yielded an EC50 of 0.09 µM.

In the case of `CCOC(=O)c1c(C)oc2c1c1c(c3ccccc32)OCN(Cc2ccccn2)C1` [MLS000566323], the EC50 was determined as 4.38 µM.

Take `Cc1ccccc1CS(=O)(=O)Cc1ccc(C(=O)NCc2ccccn2)o1` [5-[(2-methylbenzyl)sulfonylmethyl]-N-(2-pyridylmethyl)-2-furamide]: the EC50 is over 100 µM.

As for `Nc1nonc1C(=O)NCCN=Cc1cc(Cc2ccccc2)cc(Br)c1O` [4-amino-N-[2-[[(E)-(3-benzyl-5-bromo-6-oxocyclohexa-2,4-dien-1-ylidene)methyl]amino]ethyl]-1,2,5-oxadiazole-3-carboxamide], the EC50 was over 100 µM.

On to `CCOC(=O)c1sc(Nc2nc3c(OC)cccc3s2)nc1C` [SMR000027213], for which the EC50 turned out to be 33.9 µM.

As to `NC(=O)c1cc(N)ccc1N1CCCC1` [5-Amino-2-pyrrolidin-1-yl-benzamide], the EC50 was over 100 µM.

In turn, `COc1ccc(Nc2cc(C)nc3ccccc23)cc1` [(4-methoxyphenyl)-(2-methyl-4-quinolyl)amine;hydrochloride] showed an EC50 of 4.27 µM.

Take `CCCCc1c(O)n(-c2ccccc2)n(-c2ccccc2)c1=O` [3,5-Dioxo-1,2-diphenyl-4-n-butylpyrazolidine]: a half-maximal response (EC50) required 1.06 µM.

For `Cc1cc(=O)oc2c(CN3CCC(C)CC3)c(O)c(Cl)cc12` [6-chloranyl-4-methyl-8-[(4-methylpiperidin-1-yl)methyl]-7-oxidanyl-chromen-2-one], the EC50 came out at 4.6 µM.

In turn, `OC(CN1CCOCC1)CN(c1ccccc1)c1ccccc1` (centres undefined) [1-(4-morpholinyl)-3-(N-phenylanilino)-2-propanol;hydrochloride] yielded an EC50 of 4.13 µM.

With `CCOC(=O)N1CCC(NC(=O)CSCc2nc(-c3ccc(OC)c(OC)c3)oc2C)CC1` [4-[[2-[[2-(3,4-dimethoxyphenyl)-5-methyl-4-oxazolyl]methylthio]-1-oxoethyl]amino]-1-piperidinecarboxylic acid ethyl ester], a half-maximal response (EC50) required 0.08 µM.

The compound `CCCOc1ccc(C(CC(=O)O)NC(=O)c2ccc3c(c2)OCO3)cc1` (centres undefined) [MLS000085916] yielded an EC50 of 11.2 µM.

For `COc1ccc(C(=O)Oc2ccc(C(C)=O)cc2)c(OC)c1` [(4-acetylphenyl) 2,4-dimethoxybenzoate], the EC50 worked out at 5.14 µM.

With `COc1ccc(OC)c(NC(=O)CCN2CCCC(C)C2)c1` (centres undefined) [MLS000070519], the midpoint of the response, the EC50, lay at 14.1 µM.

The compound `CCOC(=O)c1cnc(-n2nc(C)cc2C)nc1NC(C)c1ccccc1` (centres undefined) [2-(3,5-dimethyl-1-pyrazolyl)-4-(1-phenylethylamino)-5-pyrimidinecarboxylic acid ethyl ester] came in with an EC50 of 100 µM.

As for `COc1ccc(-c2nnc(Nc3nc4c(OC)cccc4s3)o2)c(OC)c1` [5-(2,4-dimethoxyphenyl)-N-(4-methoxy-1,3-benzothiazol-2-yl)-1,3,4-oxadiazol-2-amine], it took 2.84 µM to reach a half-maximal effect (EC50).

As for `COc1cccc(N2CCN(c3ncnc4c3[nH]c3ccc(F)cc34)CC2C)c1` (centres undefined) [8-fluoranyl-4-[4-(3-methoxyphenyl)-3-methyl-piperazin-1-yl]-5H-pyrimido[5,4-b]indole], a half-maximal response (EC50) required 8.78 µM.

Consider `CCOc1ccc(-n2c(O)c(C=NCCN3CCNCC3)c(=O)[nH]c2=O)cc1` [SMR000057873], for which a half-maximal effect (EC50) was put at 5.13 µM.

Compound `COc1cccc2sc(Nc3nnc(-c4ccc(F)cc4)o3)nc12` [5-(4-fluorophenyl)-N-(4-methoxy-1,3-benzothiazol-2-yl)-1,3,4-oxadiazol-2-amine] displayed an EC50 of 6.08 µM.

Consider `Cc1ccc(C(=O)NCC(C)(C)O)cc1` [4-methyl-N-(2-methyl-2-oxidanyl-propyl)benzamide], for which the EC50 stood at 2.34 µM.

On to `COc1cccc2sc(Nc3nc(-c4ccccn4)cs3)nc12` [(4-methoxy-1,3-benzothiazol-2-yl)-[4-(2-pyridyl)thiazol-2-yl]amine], for which the EC50 turned out to be 6.78 µM.
